Values after ≈ are worked out from the molar mass of the structure shown. Where two headings read alike, the source gives them in different places.
How the values were obtained:
[1] = target: T1, glucocerebrosidase (Gcase) (Homo sapiens, UniProt P04062); assay: Glucocerebrosidase (Gcase) activation assay with 4-methylumbelliferyl-beta-D-glucopyranoside substrate, saposin C and phosphatidylserine/triton micelles, fluorescence readout; assay type: biochemical; conditions: for Percent Gease Activation, 0.1 μM Test Compound / Percent Gease Activation, 1 μM Test Compound: Table 4
T1 construct: micellar solution containing 10 nM GCase and 100 nM saposin C
T1 sequence (P04062 40-536): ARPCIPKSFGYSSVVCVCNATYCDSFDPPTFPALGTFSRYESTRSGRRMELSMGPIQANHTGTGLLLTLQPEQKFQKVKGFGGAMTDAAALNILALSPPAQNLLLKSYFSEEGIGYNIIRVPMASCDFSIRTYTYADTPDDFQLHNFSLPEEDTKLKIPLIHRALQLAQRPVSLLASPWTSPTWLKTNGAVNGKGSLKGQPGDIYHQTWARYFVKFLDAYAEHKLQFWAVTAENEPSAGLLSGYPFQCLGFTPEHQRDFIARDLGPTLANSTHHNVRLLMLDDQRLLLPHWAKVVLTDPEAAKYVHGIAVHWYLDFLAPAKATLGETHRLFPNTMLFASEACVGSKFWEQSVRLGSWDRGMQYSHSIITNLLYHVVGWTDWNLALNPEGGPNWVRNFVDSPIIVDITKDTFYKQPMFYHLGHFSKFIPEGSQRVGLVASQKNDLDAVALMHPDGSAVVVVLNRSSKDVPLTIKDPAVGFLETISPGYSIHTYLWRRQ
Outline: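 Readout is endpoint fluorescence (ex 365, em 440 nm) after glycine pH 12.5 stop of a 15-min room-temperature reaction. Enzyme mix: GCase 10 nM plus saposin C 100 nM in 0.37 mol % PS/0.32 mM triton micelles, pH 4.7, compound pre-incubated 30 min; substrate solution 2 mM before 1:1 mixing. Tested at 1.0/0.1 μM, then 3-fold, 8-point series up to 5 μM.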

[2] = Compound solubility in water; assay type: physicochemical

| Percent Gcase Activation, 0.1 μM Test Compound ([1]; test compound at 0.1 μM) | Percent Gcase Activation, 1 μM Test Compound ([1]; test compound at 1.0 μM) | Percent Gcase Activation, 0.1 μM Test Compound ([1]; 0.1 μM test compound) | Percent Gcase Activation, 1 μM Test Compound ([1]; 1 μM test compound) | SMILES | also measured |
| --- | --- | --- | --- | --- | --- |
| *** (greater than 20% Gcase activation) | +++ (Gcase activation greater than 60%) | – | – | Cc1cc(-c2cncc(Cl)c2)nc2c(C(=O)N[C@H](C)C(F)(F)F)cnn12 [III-201] | – |
| – | – | *** (greater than 20% Gcase activation) | +++ (Gcase activation greater than 60%) | Cc1cocc1-c1cc(C)n2ncc(C(=O)N[C@H](C)C(F)(F)F)c2n1 [III-336] | – |
| *** (greater than 20% Gcase activation) | +++ (Gcase activation greater than 60%) | – | – | COc1cccc(-c2cc(C)n3ncc(C(=O)N[C@@H](C)C(F)(F)F)c3n2)c1 [III-91] | – |
| – | – | *** (greater than 20% Gcase activation) | +++ (Gcase activation greater than 60%) | Cc1cc(C#N)c(-c2cc(C)n3ncc(C(=O)N[C@H](C)C(F)(F)F)c3n2)s1 [III-347] | – |
| *** (greater than 20% Gcase activation) | +++ (Gcase activation greater than 60%) | – | – | Cc1cc(-c2ccccc2C#N)nc2c(C(=O)NC(C3CC3)C(F)(F)F)cnn12 (stereo not shown) [III-211] | – |

More lines, now with the values behind:

| SMILES | Percent Gcase Activation, 0.1 μM Test Compound ([1]; test compound at 0.1 μM) | Percent Gcase Activation, 1 μM Test Compound ([1]; test compound at 1.0 μM) | Percent Gcase Activation, 0.1 μM Test Compound ([1]; 0.1 μM test compound) | Percent Gcase Activation, 1 μM Test Compound ([1]; 1 μM test compound) | also measured |
| --- | --- | --- | --- | --- | --- |
| Cc1cc(-c2ccc(Cl)nc2)nc2c(C(=O)N[C@@H](C3CC3)C(F)(F)F)cnn12 [III-118] | *** (greater than 20% Gcase activation) | +++ (Gcase activation greater than 60%) | – | – | solubility [2]: 0.4 µg/mL (≈ 0.976 µM) |
| Cc1cc(-c2cccc(F)n2)nc2c(C(=O)NC(C3CC3)C(F)(F)F)cnn12 (stereo not shown) [III-130] | *** (greater than 20% Gcase activation) | +++ (Gcase activation greater than 60%) | – | – | solubility [2]: 0.2 µg/mL (≈ 0.508 µM) |
| Cc1cc(-c2ccc3ocnc3c2)nc2c(C(=O)NC(C3CC3)C(F)(F)F)cnn12 (stereo not shown) [III-171] | *** (greater than 20% Gcase activation) | +++ (Gcase activation greater than 60%) | – | – | Compound Solubility in Water [2]: 0.4 µg/mL |
| Cc1cc(-c2ccccn2)nc2c(C(=O)N[C@@H](C)C3CC3)cnn12 [III-24] | – | – | – | – | Percent Gcase Activation, 0.1 μM Test Compound ([1]; 0.1 μM test compound, Table 3A): ** (Gcase activation in the range of 10% up to 20%); Percent Gcase Activation, 1 μM Test Compound ([1]; 1 μM test compound, Table 3A): +++ (Gcase activation greater than 60%); solubility ([2]; Table 3A): 8.1 µg/mL (≈ 25.2 µM) |
| COc1cccc(-c2cc(C)n3ncc(C(=O)NC(C4CC4)C(F)(F)F)c3n2)n1 (stereo not shown) [III-105] | *** (greater than 20% Gcase activation) | +++ (Gcase activation greater than 60%) | – | – | solubility [2]: 0.08 µg/mL (≈ 0.197 µM) |
| Cc1cc(C)n2ncc(C(=O)Nc3ccc(N4CCCCC4)cc3)c2n1 [IV-3] | – | – | – | – | Percent Gease Activation, 0.1 μM Test Compound ([1]; 0.1 μM test compound): * (less than 10% Gcase activation); Percent Gease Activation, 1 μM Test Compound ([1]; 1 μM test compound): + (less than 30% Gcase activation); Compound Solubility in Water ([2]; Table 4): <1.5 µg/mL |
| C#Cc1ccc(NC(=O)c2cnn3c(C)cc(C)nc23)cc1 [IV-1] | – | – | – | – | Percent Gease Activation, 0.1 μM Test Compound ([1]; 0.1 μM test compound): ** (Gcase activation in the range of 10% up to 20%); Percent Gease Activation, 1 μM Test Compound ([1]; 1 μM test compound): ++ (Gcase activation in the range of 30% up to 60%); Compound Solubility in Water ([2]; Table 4): <1.5 µg/mL |
| Cc1cc(-c2cccnc2)nc2c(C(=O)N[C@@H](C)C3CC3)cnn12 [III-26] | – | – | – | – | Percent Gcase Activation, 0.1 μM Test Compound ([1]; 0.1 μM test compound, Table 3A): * (less than 10% Gcase activation); Percent Gcase Activation, 1 μM Test Compound ([1]; 1 μM test compound, Table 3A): ++ (Gcase activation in the range of 30% up to 60%); solubility ([2]; Table 3A): 26 µg/mL (≈ 80.9 µM) |
| COc1cc(-c2cc(C)n3ncc(C(=O)NC(C)C(F)(F)F)c3n2)ccc1F (stereo not shown) [III-148] | ** (Gcase activation in the range of 10% up to 20%) | +++ (Gcase activation greater than 60%) | – | – | – |
| Cc1cc(-c2ccc(C#N)nc2)nc2c(C(=O)N[C@H](C3CC3)C(F)(F)F)cnn12 [III-367] | – | – | ** (Gcase activation in the range of 10% up to 20%) | +++ (Gcase activation greater than 60%) | – |
| Cc1cc(N2CCCN(C(C)C)C2=O)nc2c(C(=O)NC(C)(C)C3CC3)cnn12 [III-261] | * (less than 10% Gcase activation) | + (less than 30% Gcase activation) | – | – | – |
| Cc1cc(-c2ccncc2)n2ncc(C(=O)NC(C)(C)C3CC3)c2n1 [III-21] | – | – | – | – | Percent Gcase Activation, 0.1 μM Test Compound ([1]; 0.1 μM test compound, Table 3A): * (less than 10% Gcase activation); Percent Gcase Activation, 1 μM Test Compound ([1]; 1 μM test compound, Table 3A): + (less than 30% Gcase activation) |
| Cc1cc(-c2ccc(C#N)nc2)nc2c(C(=O)NC(C)(C)C3CC3)cnn12 [III-370] | – | – | * (less than 10% Gcase activation) | +++ (Gcase activation greater than 60%) | – |
| Cc1cc(-c2ccc3ocnc3c2)nc2c(C(=O)N[C@H](C3CC3)C(F)(F)F)cnn12 [III-109] | *** (greater than 20% Gcase activation) | +++ (Gcase activation greater than 60%) | – | – | – |
| Cc1cnc(F)c(-c2cc(C)n3ncc(C(=O)N[C@@H](C4CC4)C(F)(F)F)c3n2)c1 [III-375] | – | – | *** (greater than 20% Gcase activation) | +++ (Gcase activation greater than 60%) | – |
| C#CC(C)(C)NC(=O)c1cnn2c(C)cc(-c3ccns3)nc12 [III-412] | – | – | * (less than 10% Gcase activation) | +++ (Gcase activation greater than 60%) | – |
| Cc1cc(-c2ccns2)nc2c(C(=O)NC(C)C(F)(F)F)cnn12 (stereo not shown) [III-178] | ** (Gcase activation in the range of 10% up to 20%) | +++ (Gcase activation greater than 60%) | – | – | – |
| Cc1cc(-c2cccnc2)nc2c(C(=O)NC(C)(C)C3CC3)cnn12 [III-18] | – | – | – | – | Percent Gcase Activation, 0.1 μM Test Compound ([1]; 0.1 μM test compound, Table 3A): ** (Gcase activation in the range of 10% up to 20%); Percent Gcase Activation, 1 μM Test Compound ([1]; 1 μM test compound, Table 3A): +++ (Gcase activation greater than 60%) |
| Cc1cc(-c2ccccn2)nc2c(C(=O)NC(C)(C)C(F)(F)F)cnn12 [III-408] | – | – | ** (Gcase activation in the range of 10% up to 20%) | +++ (Gcase activation greater than 60%) | – |
| Cc1cc(C#N)nc2c(C(=O)N[C@@H](C3CC3)C(F)(F)F)cnn12 [III-395] | – | – | * (less than 10% Gcase activation) | ++ (Gcase activation in the range of 30% up to 60%) | – |
| Cc1cc(-c2ccccn2)nc2c(C(=O)NC(C)(C)C3CC3)cnn12 [III-16] | – | – | – | – | Percent Gcase Activation, 0.1 μM Test Compound ([1]; 0.1 μM test compound, Table 3A): ** (Gcase activation in the range of 10% up to 20%); Percent Gcase Activation, 1 μM Test Compound ([1]; 1 μM test compound, Table 3A): +++ (Gcase activation greater than 60%) |
| Cc1cc(N2CC(C(C)C)NC2=O)nc2c(C(=O)NC(C3CC3)C(F)(F)F)cnn12 (stereo not shown) [III-320] | – | – | *** (greater than 20% Gcase activation) | +++ (Gcase activation greater than 60%) | – |
| Cc1cc(-c2ccc(F)c(C#N)c2)nc2c(C(=O)NC(C)C(F)(F)F)cnn12 (stereo not shown) [III-159] | ** (Gcase activation in the range of 10% up to 20%) | +++ (Gcase activation greater than 60%) | – | – | – |

Source: US10934298B2, “Substituted pyrazolo[1,5-a]pyrimidines for the treatment of medical disorders” (BIAL—BioTech Investments, Inc., priority 2016, dated 2021)
